The results in this text go back to ChEMBL document CHEMBL5725543, “Aniline derivative, pharmaceutical composition containing same, and use thereof” (2017).

By IC50 is commonly meant the concentration at which inhibition is half-maximal.

For this test, the target named is Sphingosine 1-phosphate receptor 1 (Homo sapiens, UniProt P21453). Put plainly: BCA Protein Assay: Inhibitory activity evaluation was performed by multi-screen (registered trademark) HTS 96-well plate (Millipore) using the cell membrane fraction stably expressing S1P1 obtained by the above operation. 25 μL of assay solution (50 mM Tris, 100 mM sodium chloride, 5 mM magnesium chloride, 1 mM EDTA, 1 mM DTT (dithiothreitol), 10 μM GDP (guanosine diphosphate) and 0.5% BSA (bovine serum albumin), pH 7.4), 25 μL of test compounds solution diluted by assay solution and 25 μL of the membrane fraction (0.2 μg protein/μL) were added to each well, and the mixture was gently shaken at room temperature: for 30 minutes. Then, 25 μL of 35S-GTP, and 25 μL of 50 nM S1P1 receptor selective agonist (1-[4-(4-phenyl-5-trifluoromethylthiophen-2-ylmethoxy)benzyl]azetidine-3-carboxylic acid, ¿J. Med. Chem.¿, 2004, vol. 47, pp. 6662-6665, compound 18) were added to each well, respectively, and it was reacted at room temperature for 60 minutes. After the reaction, a reaction solution of each well was suction-filtered. After suction filtration, ice-colded wash solution (50 mM Tris, 100 mM sodium chloride, […] and 1 mM EDTA, pH 7.4) was added to each well, and moreover filters were washed by suction filtration. This wash procedure was performed three times. A bottom of the plate containing the filters was dried at 60° C. […].
Sphingosine 1-phosphate receptor 1, sequence (P21453 whole entry): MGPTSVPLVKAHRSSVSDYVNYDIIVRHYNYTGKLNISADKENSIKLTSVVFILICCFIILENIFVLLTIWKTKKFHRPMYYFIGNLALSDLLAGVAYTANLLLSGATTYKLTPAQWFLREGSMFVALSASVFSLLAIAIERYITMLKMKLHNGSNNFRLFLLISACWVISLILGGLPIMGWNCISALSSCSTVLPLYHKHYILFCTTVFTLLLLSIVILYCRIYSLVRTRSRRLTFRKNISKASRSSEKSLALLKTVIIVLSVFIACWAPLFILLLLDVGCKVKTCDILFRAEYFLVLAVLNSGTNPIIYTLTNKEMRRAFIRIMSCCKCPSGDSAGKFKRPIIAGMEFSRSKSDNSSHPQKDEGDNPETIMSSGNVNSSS

As to `CCN(c1ccc(Cl)c(C)c1)C(CO)c1cccc(CN2CC(C(=O)O)C2)c1` (stereo unspecified), the IC50 is 11.2 nM.
